Measurements reported in paper PMC7413254 (Nature Communications, 2020).
Read-outs that look alike come from different tables or passages of the source.

Experiments:
non-expressing oocytes [1] = assay: cells; type: cell-based, Xenopus laevis; details: Xenopus laevis, total [3H]CQ transport; for inhibition at 500 µM: [test solute] = 0.5 mM; for inhibition at 1000 µM: [test solute] = 1 mM; for inhibition at 2000 µM: [test solute] = 2 mM
Summary of the method: (§1)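 Inward transport into oocyte cytosol from pH 5.5 medium models PfCRT efflux from the acidic digestive vacuole. Incubation 1.5 h, 27.5 °C; termination by ice-cold washes; lysate radioactivity counted.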

non-expressing oocytes [2] = type: cell-based, Xenopus laevis; details: total [3H]CQ transport; for Uptake of [3H]CQ (% non-expressing oocyte control), trans-stimulation: non-expressing oocytes, normalised to the oocyte type control; for Uptake of [3H]CQ (% PfCRTDd2 control), trans-stimulation, non-expressing oocytes: mean ± SEM, SEM
Summary of the method: (§2)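 Oocytes (ten per treatment, ≥4 independent frogs/days) were preloaded by injecting VF-6 in 25 nL ND96 at pH 5.0, 5.5, 6.0 or 7.0, or Na^+-free choline buffer, then uptake run 1.5 h, 27.5 °C, ND96 pH 5.5 by default. Internal concentrations assumed ~400 nL oocyte volume.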

PfCRT^Dd2 [3] = molecular target: T1, PfCRT^Dd2 (Plasmodium falciparum, UniProt Q9N623, A220S/I356T/K76T/M74I/N326S/N75E/Q271E/R371I); assay: cell-based; type: cell-based; details: […]; for activity at 45000 µM: [test solute]i = 45 mM (30 mM for some solutes due to solubility)
Summary of the method: as §2

PfCRT^3D7 [4] = molecular target: T2, PfCRT^3D7 (Plasmodium falciparum, UniProt Q8IBZ9); assay: cell-based; type: cell-based
Summary of the method: as §2

PfCRT^Ecu1110 [5] = molecular target: T3, PfCRT^Ecu1110 (Plasmodium falciparum, UniProt Q9N623, A220S/I356L/K76T/N326D); assay: cell-based; type: cell-based; details: […]
Summary of the method: as §2

PfNT1 = molecular target: T4, PfNT1 (Plasmodium falciparum, UniProt Q8IDM6); assay: cell-based; type: cell-based; details: for activity at 5000 µM: total [3H]CQ transport
T4 construct: expressed in transfected cells; host or cells: Xenopus laevis oocytes (stage V-VI), cRNA-injected
Summary of the method: as §2

PfCRT [6] = assay: Potential co-substrates tested for influx of VF-6 via PfCRT into the oocyte; type: cell-based, Plasmodium falciparum; set-up: key: X: Compounds that have been tested as potential co-substrates but are not required for influx of VF-6 via PfCRT into the oocyte
PfCRT^3D7 [7] = molecular target: T2, PfCRT^3D7; assay: cell-based; type: cell-based; details: total [3H]CQ transport; for inhibition at 500 µM: [test solute] = 0.5 mM; for inhibition at 1000 µM: [test solute] = 1 mM; for inhibition at 2000 µM: [test solute] = 2 mM
Summary of the method: as §1

PfCRT [8] = assay: Influx of VF-6 via PfCRT into the oocyte, solutes tested as potential co-substrates; type: cell-based, Plasmodium falciparum; set-up: key: X: Compounds that have been tested as potential co-substrates but are not required for influx of VF-6 via PfCRT into the oocyte; details: X marks the solute
PfCRT^Dd2 [9] = molecular target: T1, PfCRT^Dd2; assay: [3H]CQ uptake into Xenopus oocytes, cis-inhibition by unlabelled solute; type: cell-based
Summary of the method: as §1

PfCRT^Ecu1110 [10] = molecular target: T3, PfCRT^Ecu1110; assay: as above; type: cell-based
Summary of the method: as §1

[11] = Oocyte, mean ± SEM, SEM, read-out: Uptake of [3H]CQ (% PfCRTDd2 control), cis-inhibition, non-expressing oocytes
[12] = non-expressing oocytes, normalised to the oocyte type control, read-out: Uptake of [3H]CQ (% non-expressing oocyte control), cis-inhibition
[13] = PfCRT3D7 oocytes, normalised to the oocyte type control, read-out: Uptake of [3H]CQ (% PfCRT3D7 control), cis-inhibition
[14] = mean ± SEM, SEM, read-out: Uptake of [3H]CQ (% PfCRTDd2 control), cis-inhibition, PfCRT3D7
[15] = read-out: PfCRT-mediated [3H]CQ transport, cis-inhibition (% PfCRTDd2 control)
[16] = read-out: Uptake of [3H]CQ (% PfCRTDd2 control), cis-inhibition, PfCRTDd2, SEM
[17] = read-out: PfCRT-mediated [3H]CQ transport, cis-inhibition (% PfCRTEcu1110 control)
[18] = read-out: Uptake of [3H]CQ (% PfCRTDd2 control), cis-inhibition, PfCRTEcu1110, SEM
[19] = read-out: Uptake of [3H]CQ (% PfCRTEcu1110 control), cis-inhibition
[20] = read-out: [3H]CQ transport (% PfCRTEcu1110 control), cis-inhibition, PfCRTEcu1110, SEM

T3 sequence (Q9N623 whole entry A220S/I356L/K76T/N326D): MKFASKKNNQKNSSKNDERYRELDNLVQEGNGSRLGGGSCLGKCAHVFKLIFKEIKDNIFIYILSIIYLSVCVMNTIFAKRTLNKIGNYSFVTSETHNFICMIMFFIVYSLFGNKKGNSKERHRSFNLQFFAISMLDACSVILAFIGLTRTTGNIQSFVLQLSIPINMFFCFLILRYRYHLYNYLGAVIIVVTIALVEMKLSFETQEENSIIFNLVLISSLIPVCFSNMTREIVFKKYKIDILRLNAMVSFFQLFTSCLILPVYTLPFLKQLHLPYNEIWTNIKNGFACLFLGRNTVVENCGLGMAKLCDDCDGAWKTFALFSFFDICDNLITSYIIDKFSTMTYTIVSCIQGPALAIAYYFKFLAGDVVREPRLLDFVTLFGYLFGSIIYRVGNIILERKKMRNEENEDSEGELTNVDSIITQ
T2 sequence (Q8IBZ9 59-398): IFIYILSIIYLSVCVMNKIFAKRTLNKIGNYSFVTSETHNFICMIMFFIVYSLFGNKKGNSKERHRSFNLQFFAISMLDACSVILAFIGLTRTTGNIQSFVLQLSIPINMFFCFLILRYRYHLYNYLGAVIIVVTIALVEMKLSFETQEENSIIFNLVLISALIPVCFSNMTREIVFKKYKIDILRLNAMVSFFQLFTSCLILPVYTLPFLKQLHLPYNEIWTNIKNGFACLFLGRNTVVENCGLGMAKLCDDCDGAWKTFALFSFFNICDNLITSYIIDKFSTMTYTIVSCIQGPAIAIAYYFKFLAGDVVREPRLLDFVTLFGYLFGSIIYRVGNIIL
T1 sequence (Q9N623 whole entry A220S/I356T/K76T/M74I/N326S/N75E/Q271E/R371I): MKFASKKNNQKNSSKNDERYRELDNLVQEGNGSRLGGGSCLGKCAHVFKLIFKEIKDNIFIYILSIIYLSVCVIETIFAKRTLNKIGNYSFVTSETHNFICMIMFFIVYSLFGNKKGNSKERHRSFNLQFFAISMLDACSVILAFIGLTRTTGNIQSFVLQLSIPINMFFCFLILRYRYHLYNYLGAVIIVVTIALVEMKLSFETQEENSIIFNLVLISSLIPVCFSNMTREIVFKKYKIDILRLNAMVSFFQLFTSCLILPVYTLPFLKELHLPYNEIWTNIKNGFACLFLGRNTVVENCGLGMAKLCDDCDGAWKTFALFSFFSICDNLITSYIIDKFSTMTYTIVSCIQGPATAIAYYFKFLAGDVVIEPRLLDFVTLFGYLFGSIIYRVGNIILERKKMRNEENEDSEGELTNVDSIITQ
T4 sequence (Q8IDM6 whole entry): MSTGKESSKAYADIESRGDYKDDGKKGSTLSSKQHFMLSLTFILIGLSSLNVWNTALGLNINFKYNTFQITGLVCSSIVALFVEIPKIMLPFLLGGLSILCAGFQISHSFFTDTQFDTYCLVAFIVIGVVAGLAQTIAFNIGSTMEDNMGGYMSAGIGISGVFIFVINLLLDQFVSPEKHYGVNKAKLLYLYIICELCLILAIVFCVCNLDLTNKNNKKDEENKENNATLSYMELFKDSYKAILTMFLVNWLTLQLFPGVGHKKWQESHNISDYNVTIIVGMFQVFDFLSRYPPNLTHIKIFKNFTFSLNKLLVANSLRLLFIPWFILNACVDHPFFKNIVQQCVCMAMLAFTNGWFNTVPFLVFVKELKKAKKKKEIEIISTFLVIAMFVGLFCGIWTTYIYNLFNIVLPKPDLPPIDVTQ

C[C@@H](O)[C@H](N)C(=O)O [L-threonine]
inhibition at 500 µM (non-expressing oocytes [1]; [11]): 2.2 ± 0.04% | inhibition at 1000 µM (non-expressing oocytes [1]; [11]): 3.8 ± 0.08% | inhibition at 2000 µM (non-expressing oocytes [1]; [11]): 2.8 ± 0.02% | inhibition at 500 µM (non-expressing oocytes [1]; [12]): 95 ± 5.4% | inhibition at 1000 µM (non-expressing oocytes [1]; [12]): 98 ± 3.6% | inhibition at 2000 µM (non-expressing oocytes [1]; [12]): 100 ± 3.6% | Uptake of [3H]CQ (% non-expressing oocyte control), trans-stimulation (non-expressing oocytes [2]; [test solute]i = 5 mM): 101 ± 3.2 % non-expressing oocyte control | Uptake of [3H]CQ (% non-expressing oocyte control), trans-stimulation (non-expressing oocytes [2]; [test solute]i = 45 mM (30 mM for some solutes due to solubility)): 99 ± 2.4 % non-expressing oocyte control | Uptake of [3H]CQ (% PfCRTDd2 control), trans-stimulation, non-expressing oocytes (non-expressing oocytes [2]; [test solute]i = 5 mM (intracellular)): 2.4 ± 0.08 % PfCRTDd2 control | Uptake of [3H]CQ (% PfCRTDd2 control), trans-stimulation, non-expressing oocytes (non-expressing oocytes [2]; [test solute]i = 45 mM (intracellular; 30 mM for some solutes due to solubility)): 2.8 ± 0.02 % PfCRTDd2 control | activity at 5000 µM (PfCRT^Dd2 [3]; pH 5.5, read-out: PfCRT-mediated [3H]CQ transport, trans-stimulation (% PfCRTDd2 control), [test solute]i = 5 mM (intracellular), PfCRTDd2 oocytes, normalised to oocyte type control): 96 ± 3.2% | activity at 5000 µM (PfCRT^Dd2 [3]; pH 5.5, read-out: Uptake of [3H]CQ (% PfCRTDd2 control), trans-stimulation, PfCRTDd2, total [3H]CQ transport, [test solute]i = 5 mM (intracellular), mean ± SEM, SEM): 98 ± 3.2% | activity at 5000 µM (PfCRT^Dd2 [3]; pH 5.5, read-out: Uptake of [3H]CQ (% PfCRTDd2 control), trans-stimulation, PfCRTDd2 oocytes, [test solute]i = 5 mM, total [3H]CQ transport, normalised to the oocyte type control): 98 ± 3.2% | activity at 45000 µM (PfCRT^Dd2 [3]; pH 5.5, read-out: Uptake of [3H]CQ (% PfCRTDd2 control), trans-stimulation, PfCRTDd2 oocytes, total [3H]CQ transport, normalised to the oocyte type control): 99 ± 3.2% | activity at 5000 µM (PfCRT^Dd2 [3]; pH 5.5, read-out: [3H]CQ transport (% PfCRTDd2 control), trans-stimulation, PfCRTDd2, trans-stimulation, [test solute]i = 5 mM (injected), PfCRT-mediated component (background subtracted), mean ± SEM, SEM): 96 ± 3.2% | activity at 45000 µM (PfCRT^Dd2 [3]; pH 5.5, read-out: [3H]CQ transport (% PfCRTDd2 control), trans-stimulation, PfCRTDd2, trans-stimulation, PfCRT-mediated component (background subtracted), mean ± SEM, SEM): 97 ± 3.9% | activity at 5000 µM (PfCRT^3D7 [4]; PfCRT3D7 oocytes, [test solute]i = 5 mM, total [3H]CQ transport, normalised to the oocyte type control, read-out: Uptake of [3H]CQ (% PfCRT3D7 control), trans-stimulation): 99 ± 4.2% | [3H]CQ transport (% PfCRT3D7 control), trans-stimulation, PfCRT3D7 (PfCRT^3D7 [4]; SEM): 0.3 ± 0.01 % PfCRT3D7 control | activity at 5000 µM (PfCRT^3D7 [4]; [test solute]i = 5 mM (intracellular), PfCRT3D7 oocytes, normalised to oocyte type control, read-out: PfCRT-mediated [3H]CQ transport, trans-stimulation (% PfCRT3D7 control)): 97 ± 2.9% | activity at 45000 µM (PfCRT^3D7 [4]; SEM, read-out: Uptake of [3H]CQ (% PfCRTDd2 control), trans-stimulation, PfCRT3D7): 3.3 ± 0.02% | activity at 45000 µM (PfCRT^3D7 [4]; read-out: PfCRT-mediated [3H]CQ transport, trans-stimulation (% PfCRT3D7 control)): 96 ± 3.1% | activity at 45000 µM (PfCRT^3D7 [4]; read-out: Uptake of [3H]CQ (% PfCRT3D7 control), trans-stimulation): 98 ± 2.8% | activity at 5000 µM (PfCRT^3D7 [4]; total [3H]CQ transport, [test solute]i = 5 mM (intracellular), mean ± SEM, SEM, read-out: Uptake of [3H]CQ (% PfCRTDd2 control), trans-stimulation, PfCRT3D7): 3.3 ± 0.1% | activity at 5000 µM (PfCRT^Ecu1110 [5]; pH 5.5, read-out: PfCRT-mediated [3H]CQ transport, trans-stimulation (% PfCRTEcu1110 control), [test solute]i = 5 mM (intracellular), PfCRTEcu1110 oocytes, normalised to oocyte type control): 99 ± 3.4% | activity at 5000 µM (PfCRT^Ecu1110 [5]; pH 5.5, read-out: Uptake of [3H]CQ (% PfCRTEcu1110 control), trans-stimulation, PfCRTEcu1110 oocytes, [test solute]i = 5 mM, total [3H]CQ transport, normalised to the oocyte type control): 101 ± 2.5% | activity at 45000 µM (PfCRT^Ecu1110 [5]; pH 5.5, read-out: Uptake of [3H]CQ (% PfCRTEcu1110 control), trans-stimulation, PfCRTEcu1110 oocytes, [test solute]i = 45 mM (30 mM for some solutes due to solubility), total [3H]CQ transport, normalised to the oocyte type control): 99 ± 2% | activity at 5000 µM (PfCRT^Ecu1110 [5]; read-out: Uptake of [3H]CQ (% PfCRTDd2 control), trans-stimulation, PfCRTEcu1110, total [3H]CQ transport, [test solute]i = 5 mM (intracellular), mean ± SEM, SEM): 36 ± 1.9% | activity at 45000 µM (PfCRT^Ecu1110 [5]; read-out: Uptake of [3H]CQ (% PfCRTDd2 control), trans-stimulation, PfCRTEcu1110, total [3H]CQ transport, [test solute]i = 45 mM (intracellular; 30 mM for some solutes due to solubility), mean ± SEM, SEM): 35 ± 1.3% | activity at 5000 µM (PfNT1; PfNT1 oocytes, [test solute]i = 5 mM, normalised to the oocyte type control, read-out: Uptake of [3H]CQ (% PfNT1 control), trans-stimulation): 99 ± 3.5% | activity at 45000 µM (PfNT1; SEM, read-out: Uptake of [3H]CQ (% PfCRTDd2 control), trans-stimulation, PfNT1): 2.6 ± 0.08% | activity at 45000 µM (PfNT1; read-out: Uptake of [3H]CQ (% PfNT1 control), trans-stimulation): 100 ± 2.6% | activity at 5000 µM (PfNT1; [test solute]i = 5 mM (intracellular), mean ± SEM, SEM, read-out: Uptake of [3H]CQ (% PfCRTDd2 control), trans-stimulation, PfNT1): 2.8 ± 0.05% | Tested as potential co-substrate but not required for influx of VF-6 via PfCRT into the oocyte (PfCRT [6]): X | inhibition at 500 µM (PfCRT^3D7 [7]; [13]): 100 ± 4.7% | inhibition at 1000 µM (PfCRT^3D7 [7]; [13]): 100 ± 5.3% | inhibition at 2000 µM (PfCRT^3D7 [7]; [13]): 99 ± 5.3% | inhibition at 500 µM (PfCRT^3D7 [7]; [14]): 2.9 ± 0.03% | inhibition at 1000 µM (PfCRT^3D7 [7]; [14]): 2.8 ± 0.07% | inhibition at 2000 µM (PfCRT^3D7 [7]; [14]): 3.3 ± 0.03% | Compounds that have been tested as potential co-substrates but are not required for influx of VF-6 via PfCRT into the oocyte (PfCRT [8]): X | inhibition at 500 µM (PfCRT^Dd2 [9]; [15]): 95 ± 3.6% | inhibition at 2000 µM (PfCRT^Dd2 [9]; [15]): 92 ± 5.6% | inhibition at 500 µM (PfCRT^Dd2 [9]; [16]): 97 ± 2.5% | inhibition at 1000 µM (PfCRT^Dd2 [9]; [16]): 96 ± 3.6% | inhibition at 2000 µM (PfCRT^Dd2 [9]; [16]): 94 ± 3.2% | inhibition at 500 µM (PfCRT^Ecu1110 [10]; [17]): 94 ± 1.1% | inhibition at 1000 µM (PfCRT^Ecu1110 [10]; [17]): 95 ± 1.3% | inhibition at 2000 µM (PfCRT^Ecu1110 [10]; [17]): 94 ± 3.7% | inhibition at 500 µM (PfCRT^Ecu1110 [10]; [18]): 31 ± 1.1% | inhibition at 1000 µM (PfCRT^Ecu1110 [10]; [18]): 32 ± 1.9% | inhibition at 2000 µM (PfCRT^Ecu1110 [10]; [18]): 31 ± 1.3% | inhibition at 500 µM (PfCRT^Ecu1110 [10]; [19]): 96 ± 3.1% | inhibition at 1000 µM (PfCRT^Ecu1110 [10]; [19]): 98 ± 2.4% | inhibition at 2000 µM (PfCRT^Ecu1110 [10]; [19]): 96 ± 2.2% | inhibition at 500 µM (PfCRT^Ecu1110 [10]; [20]): 28 ± 0.6% | inhibition at 1000 µM (PfCRT^Ecu1110 [10]; [20]): 29 ± 0.8% | inhibition at 2000 µM (PfCRT^Ecu1110 [10]; [20]): 28 ± 1.5%
